The values that follow come from patent US4430327A, “Method for treating pregnant females for pain and anxiety” (Eli Lilly and Company, priority 1982, dated 1984).

A short description of data set [1]: Placental transport in pregnant rats: maternal and fetal serum levels after subcutaneous administration. It is filed as in vivo. The settings on record: rat, 50 mg/kg subcutaneous. The method, then:
In the assay using rats, 19 female rats on day 20 of their gestation period were administered 50 mg./kg. body weight metkephamid (acetate salt) subcutaneously. Sixty minutes after administration, the rats were decapitated, and their blood was collected in glass tubes. The fetuses were removed from the uterus, and the blood was collected either after decapitation or via heart puncture using glass capillary tubes.
(§1) In assaying for metkephamid, 1 ml. serum samples containing 6.72 mg. NaF and 8.0 mg. ethylenediamine tetraacetic acid (EDTA) were prepared and precipitated by addition of 2 ml. acetone. The resulting supernatants were saturated with NaCl and extracted with ethyl acetate. The extracts were dried and derivatized with Fluram® solution. The resulting solution was subjected to reverse phase high performance liquid chromatography and fluorescence detection.
For comparison, meperidine was administered to rats in the manner described for metkephamid. Meperidine content was assayed by adding 6.72 mg. NaF and 8.0 mg. EDTA to 1 ml. samples of serum. The samples were made alkaline with 0.1 ml. of 1.0 M NaOH and extracted with diethyl ether. The extracts were dried and dissolved in 0.3 ml. of ethyl acetate. An aliquot was injected into a gas chromatograph containing a 5 ft. glass column packed with 3% OV-1 on 100/120 mesh Gas Chrom Q. The oven temperature was 165° C., and the flame ionization detector temperature was 250° C.

Data set [2] can be described thus: Placental transport in pregnant ewes: maternal and fetal serum levels after intramuscular administration. Type of data set: in vivo. The settings on record: sheep. The procedure: In the assay using pregnant ewes, fetal jugular veins and carotid arteries were catheterized and externalized. Maternal femoral arteries were also catheterized. Upon stabilization of the animals, metkephamid (acetate salt) was given intramuscularly, and maternal (10 ml.) and fetal (7 ml.) arterial blood were taken at 0, 10, 20, and 45 minutes. In this assay, 5 ewes at various stages of pregnancy ranging from day 115 to day 145 of a 145-147 day gestation period were used.
as §1

Regarding `CCOC(=O)C1(c2ccccc2)CCN(C)CC1` [Meperidine, meperidine, reference compound], in data set [1] (45 min), the Fetal serum level is 2.02 ± 0.23 µg/mL and the Maternal serum level is 3.73 ± 0.89 µg/mL.
In data set [2] (female, maternal serum, im, 5 mg/kg intramuscular, 10 min), `CC(=O)O.CSCC[C@@H](C(N)=O)N(C)C(=O)[C@H](Cc1ccccc1)NC(=O)CNC(=O)[C@@H](C)NC(=O)[C@@H](N)Cc1ccc(O)cc1` [Metkephamid, L-tyrosyl-D-alanyl-glycyl-L-phenylalanyl-N^α -methyl-L-methionylamide acetate] had a level at 10 min of 9460 ± 3010 ng/mL. Moreover, in data set [2] (female, maternal serum, im, 5 mg/kg intramuscular, 20 min), the level at 20 min was determined as 9430 ± 2600 ng/mL. In addition, the level at 0.75 h in data set [2] (female, maternal serum, im, 5 mg/kg intramuscular, 45 min) is 8540 ± 2600 ng/mL. The fetal levels result in data set [2] (5 mg./kg., all measured times, limit of sensitivity about 50 ng./ml.) is “undetectable”. In addition, the Fetal serum level is 0.0 µg/mL in data set [2] (5 mg/kg intramuscular, 0 min); 0.0 µg/mL in data set [2] (5 mg/kg intramuscular, 10 min); 0.0 µg/mL in data set [2] (5 mg/kg intramuscular, 20 min); 0.0 µg/mL in data set [2] (5 mg/kg intramuscular, 45 min); 0.12 ± 0.04 µg/mL in data set [1] (60 min). For the same compound, the Maternal serum level in data set [2] (5 mg/kg intramuscular, 0 min) is 0.0 µg/mL; in data set [1] (60 min) it was 7.17 ± 0.28 µg/mL.
